One data set relates to A431 line. In words: MTT antiproliferative test, A431. It counts as cell-based, human. Particulars: A-431, read-out: IC50, inhibition of proliferation. The protocol:
(§1) The lines MDAMB-435 and A431 are seeded at a density of 3000 cells per well in 96-well plates. After 24 hours, compounds 4.2a and 5.6d resuspended in 100% DMSO are added at concentrations of 0-0.001-0.010-0.1-1-10-50 μM for a final constant amount of DMSO of 0.3%. The cultures are maintained for a further 72 hours and an MTT colorimetric test is then performed. 100 μl of a solution of MTT at 5 mg/ml in PBS are added to the culture medium, which is left to incubate for 3 hours. The culture medium is removed and the cells are lyzed by adding 100 μL of a 4 mM HCl solvent, 0.1% Nondet P-40 (NP40) in isopropanol. The yellow tetrazolium MTT salt (3-(4,5-dimethylthiazol-2-yl)-2,5-diphenyl tetrazolium bromide), when it is reduced by the mitochondrial succinate dehydrogenase of active live cells, forms a blue-violet formazan product. The medium then changes from yellow to blue-violet. The intensity of this coloration at 590 nm is proportional to the number of live cells present during the test and gives an indication of the metabolic activity of these cells.
(§2) Table 1 gives the concentration values for 50% inhibition of proliferation (IC50) for compounds 4.2a and 5.6d on lines derived from bowel cancer (CaCo2), skin cancer (A431, MDAMB-435, B16F10), breast cancer (MDAMB-431), […] (HuH7), prostate cancer (DU145) and brain cancer (SNB75, Gli4, Gli7).
In general terms: Tetrazolium dyes change colour on reduction, which living cells bring about.

Another data set concerns CaCo2. The data set is described as follows: MTT antiproliferative test, CaCo2. It counts as cell-based. Particulars: Homo sapiens, Caco-2, read-out: IC50, inhibition of proliferation. The protocol: as §1, §2
Another data set has as its system MDAMB-231. In words: MTT antiproliferative test, MDAMB-231. The following applies: Homo sapiens, MDA-MB-231, read-out: IC50, inhibition of proliferation. It counts as cell-based. The method, then:
as §1, §2

The test system of another data set is MDAMB-435 melanoma line. In words: MTT antiproliferative test, MDAMB-435. In kind it is cell-based. Particulars: Homo sapiens, MDA-MB-435, 72 hours, read-out: IC50, inhibition of proliferation. The method, then: as §1, §2
For a further data set, the system named is HuH7. In words: MTT antiproliferative test, HuH7. Particulars: Homo sapiens, Huh-7, read-out: IC50, inhibition of proliferation. In kind it is cell-based. The protocol:
as §1, §2

The subject of a further data set is B16F10. The data set is described as follows: MTT antiproliferative test, B16F10. It counts as cell-based. The following applies: Mus musculus, B16-F10, read-out: IC50, inhibition of proliferation. The protocol:
as §1, §2

The next data set deals with DU145. In words: MTT antiproliferative test, DU145. It counts as cell-based. Particulars: Homo sapiens, DU-145, read-out: IC50, inhibition of proliferation. The protocol: as §1, §2
In a further data set the test system is C6 glioblastoma line. In words: MTT antiproliferative test, C6. It counts as cell-based. Particulars: Rattus norvegicus, read-out: IC50, inhibition of proliferation. The method, then:
(§3) Several cancer cell lines were used for the in vivo or in vitro biological tests: • SNB75 is a human glioblastoma line derived from a primary culture, i.e. derived from a primary malignant cancer tumor. It forms part of the panel of 59 cancer lines referenced by the NCI. Its Cosmic reference number published by the Welcome Trust Sanger Institute is 905982. This line was supplied by a person (M.D. Ph.D of the department of “Radiation Oncology”, Stanford University Medical Center). It was cultured in Ham's F-12 and DMEM (1/1) supplemented with 10% fetal bovine serum. The experiments were performed with cells in the exponential growth phase. • Gli4 (or Gli4F11) and Gli7 are cultures of cancer strain cells derived from human glioblastomas (primary cultures). These lines are CD133^+, CD15^+ which are multipotent and tumorigenic in animals. They were established by J. P. Hugnot (INM INSERM U-1051 Eq. 4), and described in Guichet, P. O. et al, Glia 2013, 61(2), 225-239; • C6 is a rat glioblastoma line. It is referenced in the ATCC under the reference CCL-107. • MDAMB-435 is a melanoma line derived from a mammary melanoma. It forms part of the panel of 59 cancer lines referenced by the NCI. It is referenced at the ATCC under the reference HTB-129. It was cultured in Ham's F-12 and DMEM (1/1) supplemented with 10% fetal bovine serum. […]

In the next data set the test system is SNB75 glioblastoma line. The data set is described as follows: MTT antiproliferative test, SNB75. In kind it is cell-based. Particulars: Homo sapiens, SNB-75, read-out: IC50, inhibition of proliferation. The method, then:
as §3

The next data set relates to GLi4. In words: MTT antiproliferative test, Gli4. It counts as cell-based. Particulars: Homo sapiens, read-out: IC50, inhibition of proliferation. The method, then:
as §3

Another data set concerns Gli7. In words: MTT antiproliferative test, Gli7. In kind it is cell-based. The following applies: Homo sapiens, read-out: IC50, inhibition of proliferation. The method, then: as §3
For data set [1], the system named is epidermoid cancer line A431. In words: Boyden chamber migration test, A431. In kind it is cell-based, human. Particulars: for Ki: 24 hours, read-out: Inhibition constant Ki, migration. The method, then:
The effects of compounds 3.48a, 4.2a and 5.6d on the migration of cancer cells (human glioblastoma line SNB75 or primary culture of human glioblastoma Gli4F1, on the one hand, and MDAMB 435 and A431 on the other hand), were determined by performing a standard migration test in a Boyden chamber (treatment of the cells for 24 hours).
For this test, the compounds were dissolved in vitro and used in culture in 0.3% of DMSO. The interior of the inserts was covered with the extracellular matrix protein studied (laminin-1, vitronectin or fibronectin). The cells pretreated at various concentrations and untreated (controls) were deposited in the inserts covered with said protein at a rate of 50 000 cells/500 μl/insert in a medium containing 0.1% of BSA (bovine serum albumin).
500 μl of medium containing 10% fetal calf serum were then placed in each well of a Companion plate so as to allow the formation of a chemotactic gradient across the porous membrane. After 24 hours of migration in the incubator at 37° C., the supernatent was removed and the inserts rinsed with PBS on each face. The cells were counted with a microscope (Zeiss Axiophot, magnification ×200). This gives a percentage of migration relative to the untreated cells.
Table 2 below gives, for compound 3.48a, the values for the inhibition constants (Ki) for the migration of a human GBM line (SNB75), of GBM stem cell lines (Gli4, Gli7) and of a breast cancer line MDAMB231, in a Boyden chamber, on various extracellular matrix protein supports. Tables 3 and 4 below give, for compounds 4.2a and 5.6d, the values of the inhibition constants (Ki) for the migration of a melanoma line (MDAMB-435) or of an epidermoid cancer line (A431), in a Boyden chamber, on various extracellular matrix protein supports. The inhibitory effect depends on the line and the stem cells used, but also on the extracellular matrix protein support used.

The test system of the next data set is SNB75 cells. The data set is described as follows: SNB75 subcutaneous model. It counts as in vivo, mice. The method, then: Nude female mice 4-5 weeks old with an average weight of […], supplied by the R. Janvier breeding center, were used. The mice were kept in a pathogen-free environment and with food and water present ad libitum. The experiments were commenced after one week of acclimatizing the mice to their new environment.
A suspension of 5×10^6 SNB75 cells in 100 μl of sterile PBS (phosphate-buffered saline, provided by Fisher) was injected into each mouse (subcutaneous administration without anesthesia). Once the mice presented tumors with volumes of between […], groups were formed so that each of them contained an equivalent number of large, medium and small tumors. The protocol was conducted with five groups of seven mice. The five groups of mice were treated using one of the five formulations described below:
Group A: Treatment by injection of 100 μl of NaCl (control N° 1).
Group B: Treatment with compound 3.48a at a rate of 10 mg/kg with volumes of 100 to 150 μl of formulation 2 according to the weight of the mice.
Group C: Treatment with compound 3.48a at a rate of 5 mg/kg with volumes of 100 to 150 μl of formulation 2 according to the weight of the mice.
Group D: Treatment with temozolomide at a rate of 20 mg/kg with volumes of 100 to 150 μl according to the weight of the mice. Temozolomide is a comparative anticancer active principle sold under the name Temodal by the laboratory Schering Plough. It is indicated for treating glioblastoma multiforme.
Group E: Treatment by injection of 100 to 150 μl according to the weight of the mice of formulation 2 not containing compound 3.48a (control N° 2).
Each batch was treated by intravenous injection into the caudal vein of 100 to 150 μl of solution (precision syringe and G25X1 needle ultrafine wall, VWR). Three injections per week for four weeks were performed. The mice were weighed at each injection. The sizes of the tumors were measured twice a week for a period of four weeks. The mice were sacrificed after four weeks and the tumors and organs (liver, kidney, spleen, brain, intestine, heart, muscles) were removed. A histological analysis was performed on these organs.

Like-named read-outs stand apart in the source and are kept apart here.

Consider `CC(=O)N[C@@H]1[C@H]2OC(C)(C)O[C@H]2[C@@H]([C@H]2COC(C)(C)O2)O[P@@]1(=O)c1ccccc1` [Compound 5.6d], for which the IC50 with A431 line (A431 line (human epidermoid cancer)) came out at 100 nM; in the data set with A431 line (Homo sapiens, A431, 72 hours, MTT), 130 nM; in the data set on CaCo2, 36000 nM; in the data set with MDAMB-231, 23200 nM; in the data set with MDAMB-435 melanoma line, 9610 nM; in the data set on HuH7, 22000 nM. Moreover, the IC50 in the data set on B16F10 is 14900 nM; with DU145, 31200 nM; in the data set on C6 glioblastoma line, 650 nM; with SNB75 glioblastoma line, 650 nM; with GLi4, 540 nM; in the data set with Gli7 it was 500 nM. For the same molecule, the IC50 in data set [1] (Homo sapiens, A-431, on fibronectin or vitronectin, read-out: Concentration for a 50% decrease in migration of the cancer cells) is 10 to 100 nM. Further, the Ki came to 8 nM in data set [1] (support Fibronectin), 13 nM in data set [1] (support Laminin) and 20 nM in [1] (support Vitronectin).
For `Cn1nnc2c(C(N)=O)ncn2c1=O` [temozolomide, reference compound], the Weight loss result in the data set with SNB75 cells (20 mg/kg i.v. (group D), remaining four mice) is reported as “substantial weight losses”. The Mortality result with SNB75 cells (20 mg/kg i.v. (group D), seven mice) is given as “three of the seven mice died after the third injection”. Also, the “Lethality at higher dose” value in the data set on SNB75 cells (dose of 40 mg/kg) is “leads to the death of the mice before the end of the experimentation period”.

These data come from patent US20150376216A1, “SUGAR-ANALOG PHOSPHORUS-CONTAINING HETEROCYCLES HAVING AN ANTI-METASTATIC ACTIVITY” (CENTRE NATIONAL DE LA RECHERCHE SCIENTIRIQUE, priority 2013, published 2015).
